Strand notation (5' to 3'): a small letter for the sugar, then the base; units joined by * are phosphorothioate-linked, units joined directly phosphodiester-linked; [ ] holds rarer units or linkages, { } end groups; capitals alone tell only the bases. d = 2'-deoxy (DNA)
Tested on: human PBMCs
Assay: Human PBMC cytokine response assay (IFN-γ and IFN-α in cell-free medium by ELISA), with or without cPLGA;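 as to IFN-α (pg/ml) mean: 20 µg/mL compound for 24 hours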;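 as to IFN-γ (pg/ml) mean: 20 µg/mL compound for 24 hours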
Format: cell-based
[1] = Donor 5, 20 μg/ml (mixtures: 20 μg/ml total), 24 h
[2] = Donor 6, 20 μg/ml (mixtures: 20 μg/ml total), 24 h
[3] = Table 24, mean of donors 28234-28237
[4] = Table 25, mean of donors 28250-28253
[5] = donor 28066, 20 ug/ml, 24 h, + PLGA = premixed with 100 μg/ml cPLGA
[6] = donor 28067, 20 ug/ml, 24 h, + PLGA = premixed with 100 μg/ml cPLGA
[7] = donor 28068, 20 ug/ml, 24 h, + PLGA = premixed with 100 μg/ml cPLGA
[8] = mean of Donors 1-2, 20 μg/ml, 24 h
[9] = mean of Donors 3-4, 20 μg/ml, 24 h
[10] = mean of Donors 5-6, 20 μg/ml (mixtures: 20 μg/ml total), 24 h
[11] = mean of Donors 7-8, 20 μg/ml, 24 h
[12] = mean of Donors 9-12, 20 μg/ml, 24 h
[13] = mean of donors 110, 112, 119, 120, Table 14
[14] = mean of donors 28057-28060, Table 16
[15] = mean of donors 28065-28068, 20 ug/ml, 24 h, + PLGA = premixed with 100 μg/ml cPLGA
[16] = mean of donors 28185-28188, Table 15
[17] = mean of donors 28218-28221, 20 μg/ml, 24 h

5′-TGACTGTGAACCTTAGAGATGA-3′ (SEQ ID NO: 3) (dT*dG*dA*dC*dT*dG*dT*dG*dA*dA*dC*dC*dT*dT*dA*dG*dA*dG*dA*dT*dG*dA) [Compound P-7, negative control, reference compound]
IFN-α (pg/ml) Donor 1 (Donor 1, 20 μg/ml, 24 h): 0 pg/mL
IFN-γ (pg/ml) Donor 1 (Donor 1, 20 μg/ml, 24 h): 410 pg/mL
IFN-α (pg/ml) Donor 2 (Donor 2, 20 μg/ml, 24 h): 0 pg/mL
IFN-γ (pg/ml) Donor 2 (Donor 2, 20 μg/ml, 24 h): 51 pg/mL
IFN-α (pg/ml) Donor 3 (Donor 3, 20 μg/ml, 24 h): 0 pg/mL
IFN-γ (pg/ml) Donor 3 (Donor 3, 20 μg/ml, 24 h): 3 pg/mL
IFN-α (pg/ml) Donor 4 (Donor 4, 20 μg/ml, 24 h): 31 pg/mL
IFN-γ (pg/ml) Donor 4 (Donor 4, 20 μg/ml, 24 h): 8 pg/mL
IFN-α (pg/ml) Donor 5 [1]: 20 pg/mL
IFN-γ (pg/ml) Donor 5 [1]: 7 pg/mL
IFN-α (pg/ml) Donor 6 [2]: 94 pg/mL
IFN-γ (pg/ml) Donor 6 [2]: 66 pg/mL
IFN-α (pg/ml) Donor 7 (Donor 7, 20 μg/ml, 24 h): 0 pg/mL
IFN-γ (pg/ml) Donor 7 (Donor 7, 20 μg/ml, 24 h): 2 pg/mL
IFN-α (pg/ml) Donor 8 (Donor 8, 20 μg/ml, 24 h): 0 pg/mL
IFN-γ (pg/ml) Donor 8 (Donor 8, 20 μg/ml, 24 h): 2 pg/mL
IFN-α Donor 9 (Donor 9, 20 μg/ml, 24 h): 0
IFN-γ Donor 9 (Donor 9, 20 μg/ml, 24 h): 5
IFN-α Donor 10 (Donor 10, 20 μg/ml, 24 h): 3
IFN-γ Donor 10 (Donor 10, 20 μg/ml, 24 h): 2
IFN-α Donor 11 (Donor 11, 20 μg/ml, 24 h): 1
IFN-γ Donor 11 (Donor 11, 20 μg/ml, 24 h): 3
IFN-α Donor 12 (Donor 12, 20 μg/ml, 24 h): 5
IFN-γ Donor 12 (Donor 12, 20 μg/ml, 24 h): 2
IFN-α (Example 58, 0.8 ug/ml, donor 1): 52 pg/mL
IFN-α (Example 58, 0.8 ug/ml, donor 2): 52 pg/mL
IFN-α (Example 58, 0.8 ug/ml, donor 3): 52 pg/mL
IFN-α (Example 58, 0.8 ug/ml, donor 4): 52 pg/mL
IFN-α mean (Example 58, 0.8 ug/ml, mean of four individuals): 52 pg/mL
IFN-α (Example 58, 4 ug/ml, donor 1): 52 pg/mL
IFN-α (Example 58, 4 ug/ml, donor 2): 52 pg/mL
IFN-α (Example 58, 4 ug/ml, donor 3): 52 pg/mL
IFN-α (Example 58, 4 ug/ml, donor 4): 52 pg/mL
IFN-α mean (Example 58, 4 ug/ml, mean of four individuals): 52 pg/mL
IFN-α (Example 58, 20 ug/ml, donor 1): 52 pg/mL
IFN-α (Example 58, 20 ug/ml, donor 2): 52 pg/mL
IFN-α (Example 58, 20 ug/ml, donor 3): 52 pg/mL
IFN-α (Example 58, 20 ug/ml, donor 4): 52 pg/mL
IFN-α mean (Example 58, 20 ug/ml, mean of four individuals): 52 pg/mL
IFN-α (Example 59, 0.8 ug/ml, donor 48): 102 pg/mL
IFN-α (Example 59, 0.8 ug/ml, donor 177): 102 pg/mL
IFN-α (Example 59, 0.8 ug/ml, donor 272): 102 pg/mL
IFN-α (Example 59, 0.8 ug/ml, donor 273): 102 pg/mL
IFN-α mean (Example 59, 0.8 ug/ml, mean of four donors): 102 pg/mL
IFN-α (Example 59, 4 ug/ml, donor 48): 102 pg/mL
IFN-α (Example 59, 4 ug/ml, donor 177): 102 pg/mL
IFN-α (Example 59, 4 ug/ml, donor 272): 102 pg/mL
IFN-α (Example 59, 4 ug/ml, donor 273): 102 pg/mL
IFN-α mean (Example 59, 4 ug/ml, mean of four donors): 102 pg/mL
IFN-α (Example 59, 20 ug/ml, donor 48): 102 pg/mL
IFN-α (Example 59, 20 ug/ml, donor 177): 102 pg/mL
IFN-α (Example 59, 20 ug/ml, donor 272): 102 pg/mL
IFN-α (Example 59, 20 ug/ml, donor 273): 102 pg/mL
IFN-α mean (Example 59, 20 ug/ml, mean of four donors): 102 pg/mL
IFN-α (Table 9, donor 28089): 0 pg/mL
IFN-γ (Table 9, donor 28089): 0 pg/mL
IFN-α (Table 9, donor 28090): 27 pg/mL
IFN-γ (Table 9, donor 28090): 4 pg/mL
IFN-α (Table 9, donor 28098): 19 pg/mL
IFN-γ (Table 9, donor 28098): 0 pg/mL
IFN-α (Table 9, donor 28099): 37 pg/mL
IFN-γ (Table 9, donor 28099): 2 pg/mL
IFN-α mean (Table 9, mean of donors): 21 pg/mL
IFN-γ mean (Table 9, mean of donors): 1 pg/mL
IFN-α (Table 10, donor 28042): 0 pg/mL
IFN-γ (Table 10, donor 28042): 66 pg/mL
IFN-α (Table 10, donor 28043): 11 pg/mL
IFN-γ (Table 10, donor 28043): 76 pg/mL
IFN-α (Table 10, donor 28044): 22 pg/mL
IFN-γ (Table 10, donor 28044): 26 pg/mL
IFN-α (Table 10, donor 28045): 20 pg/mL
IFN-γ (Table 10, donor 28045): 13 pg/mL
IFN-α mean (Table 10, mean of donors): 13 pg/mL
IFN-γ mean (Table 10, mean of donors): 45 pg/mL
IFN-α (Table 11, donor 28042): 0 pg/mL
IFN-γ (Table 11, donor 28042): 34 pg/mL
IFN-α (Table 11, donor 28043): 0 pg/mL
IFN-γ (Table 11, donor 28043): 19 pg/mL
IFN-α (Table 11, donor 28044): 4 pg/mL
IFN-γ (Table 11, donor 28044): 48 pg/mL
IFN-α (Table 11, donor 28045): 54 pg/mL
IFN-γ (Table 11, donor 28045): 35 pg/mL
IFN-α mean (Table 11, mean of donors): 15 pg/mL
IFN-γ mean (Table 11, mean of donors): 34 pg/mL
IFN-α (Table 24, donor 28234): 62 pg/mL
IFN-γ (Table 24, donor 28234): 13 pg/mL
IFN-α (Table 24, donor 28235): 16 pg/mL
IFN-γ (Table 24, donor 28235): 4 pg/mL
IFN-α (Table 24, donor 28236): 16 pg/mL
IFN-γ (Table 24, donor 28236): 7 pg/mL
IFN-α (Table 24, donor 28237): 16 pg/mL
IFN-γ (Table 24, donor 28237): 4 pg/mL
IFN-α mean [3]: 28 pg/mL
IFN-γ mean [3]: 7 pg/mL
IFN-a (Table 25, donor 28250): 16 pg/mL
IFN-g (Table 25, donor 28250, polynucleotides/spacers at amounts equivalent to the CIC, spacers alone 9 uM): 104 pg/mL
IFN-a (Table 25, donor 28251): 16 pg/mL
IFN-g (Table 25, donor 28251): 1 pg/mL
IFN-a (Table 25, donor 28252): 16 pg/mL
IFN-g (Table 25, donor 28252): 39 pg/mL
IFN-a (Table 25, donor 28253): 16 pg/mL
IFN-g (Table 25, donor 28253): 1 pg/mL
IFN-a mean [4]: 16 pg/mL
IFN-g mean [4]: 36 pg/mL
IFN-α (donor 110, Table 14): 2 pg/mL
IFN-γ (donor 110, Table 14): 124 pg/mL
IFN-α (donor 112, Table 14): 32 pg/mL
IFN-γ (donor 112, Table 14): 24 pg/mL
IFN-α (donor 119, Table 14): 474 pg/mL
IFN-γ (donor 119, Table 14): 16 pg/mL
IFN-α (donor 120, Table 14): 2 pg/mL
IFN-γ (donor 120, Table 14): 40 pg/mL
IFN-α (donor 28057, Table 16): 0 pg/mL
IFN-γ (donor 28057, Table 16): 1 pg/mL
IFN-α (donor 28058, Table 16): 0 pg/mL
IFN-γ (donor 28058, Table 16): 2 pg/mL
IFN-α (donor 28059, Table 16): 0 pg/mL
IFN-γ (donor 28059, Table 16): 3 pg/mL
IFN-α (donor 28060, Table 16): 0 pg/mL
IFN-γ (donor 28060, Table 16): 4 pg/mL
IFN-γ (pg/ml) 28065 (donor 28065 (high background), 20 ug/ml, 24 h, + PLGA = premixed with 100 μg/ml cPLGA, 1000 = outside assay limits): 397 pg/mL
IFN-α (pg/ml) 28065 (donor 28065, 20 ug/ml, 24 h, + PLGA = premixed with 100 μg/ml cPLGA): 0 pg/mL
IFN-α (pg/ml) 28066 [5]: 8 pg/mL
IFN-γ (pg/ml) 28066 [5]: 1 pg/mL
IFN-α (pg/ml) 28067 [6]: 0 pg/mL
IFN-γ (pg/ml) 28067 [6]: 8 pg/mL
IFN-α (pg/ml) 28068 [7]: 3 pg/mL
IFN-γ (pg/ml) 28068 [7]: 15 pg/mL
IFN-a (donor 28185, Table 15): 4 pg/mL
IFN-g (donor 28185, Table 15): 0 pg/mL
IFN-a (donor 28186, Table 15): 25 pg/mL
IFN-g (donor 28186, Table 15): 4 pg/mL
IFN-a (donor 28187, Table 15): 5 pg/mL
IFN-g (donor 28187, Table 15): 19 pg/mL
IFN-a (donor 28188, Table 15): 31 pg/mL
IFN-g (donor 28188, Table 15): 2 pg/mL
IFN-a (pg/ml) 28218 (donor 28218, 20 μg/ml, 24 h): 32 pg/mL
IFN-g (pg/ml) 28218 (donor 28218, 20 μg/ml, 24 h): 5 pg/mL
IFN-a (pg/ml) 28219 (donor 28219, 20 μg/ml, 24 h): 32 pg/mL
IFN-g (pg/ml) 28219 (donor 28219, 20 μg/ml, 24 h): 5 pg/mL
IFN-a (pg/ml) 28220 (donor 28220, 20 μg/ml, 24 h): 32 pg/mL
IFN-g (pg/ml) 28220 (donor 28220, 20 μg/ml, 24 h): 5 pg/mL
IFN-a (pg/ml) 28221 (donor 28221, 20 μg/ml, 24 h): 32 pg/mL
IFN-g (pg/ml) 28221 (donor 28221, 20 μg/ml, 24 h): 5 pg/mL
IFN-α (pg/ml) mean [8]: 0 pg/mL
IFN-γ (pg/ml) mean [8]: 231 pg/mL
IFN-α (pg/ml) mean [9]: 15 pg/mL
IFN-γ (pg/ml) mean [9]: 5 pg/mL
IFN-α (pg/ml) mean [10]: 57 pg/mL
IFN-γ (pg/ml) mean [10]: 37 pg/mL
IFN-α (pg/ml) mean [11]: 0 pg/mL
IFN-γ (pg/ml) mean [11]: 2 pg/mL
IFN-α mean [12]: 2
IFN-γ mean [12]: 3
IFN-α (pg/ml) mean [13]: 128 pg/mL
IFN-γ (pg/ml) mean [13]: 51 pg/mL
IFN-α (pg/ml) mean [14]: 0 pg/mL
IFN-γ (pg/ml) mean [14]: 2 pg/mL
IFN-α (pg/ml) mean [15]: 3 pg/mL
IFN-γ (pg/ml) mean [15]: 105 pg/mL
IFN-a (pg/ml) mean [16]: 16 pg/mL
IFN-g (pg/ml) mean [16]: 6 pg/mL
IFN-a (pg/ml) mean [17]: 32 pg/mL
IFN-g (pg/ml) mean [17]: 5 pg/mL
IFN-a (pg/ml) ×2 (mean ×2, Table 15): 32 pg/mL
IFN-g (pg/ml) ×4 (mean ×4, Table 15): 25 pg/mL
immunomodulatory activity (IFN-γ / IFN-α secretion), in words (used alone (no cPLGA)): no activity
